The values that follow are results of earlier work, collected in paper PMC10651775 (Blood, 2022).

Data set [1] deals with R/R ATL. To be noted: phase 2 study (5/16); cited from earlier work.
Data set [2] relates to R/R ATL. Conditions: phase 2 study (3/12); cited from earlier work.

Read-outs that look alike come from different tables or passages of the source.

As for `Nc1cccc2c1CN(C1CCC(=O)NC1=O)C2=O` (centres unmarked) [lenalidomide], the “ORR in nodal or extranodal lesions” value in data set [1] is recorded as 31%.

B1: mogamulizumab: defucosylated anti-CCR4 antibody (antibody, chains of the INN, looked up, V domains shown)
VH: EVQLVESGGDLVQPGRSLRLSCAASGFIFSNYGMSWVRQAPGKGLEWVATISSASTYSYYPDSVKGRFTISRDNAKNSLYLQMNSLRVEDTALYYCGRHSDGNFAFGYWGQGTLVTVSS
VL: DVLMTQSPLSLPVTPGEPASISCRSSRNIVHINGDTYLEWYLQKPGQSPQLLIYKVSNRFSGVPDRFSGSGSGTDFTLKISRVEAEDVGVYYCFQGSLLPWTFGQGTKVEIK
On to B1, for which the “ORR in nodal or extranodal lesions” value in data set [2] was 25%.
